Measured values taken from patent US8637494B2, “Method of achieving normoglycemia in diabetics by administration of Withaferin A” (priority 2010, dated 2014).

Experiments:
[1] = test system: MCP-1 and IP-10; assay: Immunohistochemical staining of MCP-1 and IP-10 (HRP/DAB); type: cell-based, human; conditions: Withaferin A and cytokine treatment vs cytokine treatment
Protocol: Immunohistochemical Staining: After culture, islets were embedded in OCT compound, flash frozen in liquid nitrogen and stored at −80° C. until sectioning. Nine μm sections of embedded islets were taken and stained for IP-10 (1:100), MCP-1 (1:20), or insulin (1:75) using standard immunohistochemical techniques. Staining was visualized using an HRP-conjugated secondary antibody conjugated with diaminobenzidine (DAB). Samples were then counterstained with hematoxylin, dehydrated and mounted. Images were acquired.
(§1) The IP-10 expression level was examined by flow cytometry. After treatment, islets were fixed, permeablized and aliquoted to three tubes staining with anti-IP10.

[2] = test system: mouse islets; assay: Glucose stimulated static incubation assay, mouse islets
Protocol: (§2) Cytokine & Withaferin A Treatment: After isolation and overnight culture, islets were subjected to an in-vitro model of inflammatory conditions with a cytokine cocktail of the species specific recombinant proteins (1,000 U/mL TNF-α, 1,000 U/mL IFN-γ, and 50 U/mL IL-1β dissolved in human or mouse islet culture media). Islets were treated by Withaferin A co-culture at concentrations ranging from 0.25 to 2.0 μg/mL. Control islets were cultured in the appropriate culture media lacking both the cytokine cocktail and Withaferin A. All islets were cultured in a humidified incubation chamber at 37° C. with 5% CO2 for the indicated time.
(§3) Glucose Stimulated Static Incubation Assay: Islets in each experimental condition were incubated with low (2.8 mM) and then high (20.0 mM) concentrations of glucose solution in Functionality/Viability Medium CMRL1066 (Mediatech, Inc. Manassas, Va.) for 1 hour each at 37° C. Insulin concentrations were measured by an insulin ELISA kit (ALPCO Diagnostics, Salem, N.H.). The insulin secretion levels were normalized by total DNA of the stimulated islets. Studies were performed in triplicate with 10 islets in each group.

[3] = test system: islets; assay: TUNEL assay, FITC positive population, dose effect study
Protocol: The present inventors conducted a dose effect study of Withaferin A on islets. […] The viability and apoptosis test of islet with four different concentrations of Withaferin A (0.5 μg/mL, 1 μg/mL, 2 μg/mL and 4 μg/mL) was examined. FDA/PI staining was used to determine the islet viability.

[4] = test system: human islets; assay: Glucose stimulated static incubation assay, human islets; conditions: for stimulation index, human islets: 24 hours, no cytokines (control 3.11±1.53)
Protocol: as §2, §3

[5] = test system: MIN6, a mouse beta cell line; assay: RT-PCR gene expression in MIN6 cells; type: cell-based
Protocol: RT-PCR Inflammation Array and Primer Assays: After proper time of treatment, islets were harvested and lysed in lysis buffer (Stratagene, La Jolla Calif.). RNA was purified by Absolutely RNA Miniprep kit (Stratagene) and then reverse transcribed into cDNA by RT2 Firststrand kit (SABiosciences, Frederick Md.). […] The RT-PCR reaction was run in Stratagene MX3000 with following program: 95° C., 10 minutes; 40 cycles of (95° C., 15 second; and 60° C., 60 second). Cycle threshold data was uploaded to a Web-Based PCR Array Data Analysis on SABiociences website and fold change compared to control was analyzed.
Procedure for single gene primer assays was the same except primers of particular genes other than the whole array plate were used.

[6] = test system: IκB in human islets and β-cell lines; assay: Western blotting of IκB after cytokine cocktail; type: cell-based; conditions: cytokines 20 min
Protocol: Graphical representations (6B) are expressed as means±STD. Asterisks above bars indicate statistically significant differences in mean values (*p<0.05, **p<0.01, ***p<0.001) between treatments and controls (black bars) for each cell type based on two-tailed Student's t test;
Western Blotting: Cells were treated with cytokines for 20 min, then harvested in lysis buffer containing 50 mM HEPES, pH 7.5, 150 mM NaCl, 1% Triton X-100, 0.2 mg/mL phenylmethylsulfonyl fluoride (PMSF), 0.1 M NaF, 2 mM Na3VO4, 10 μg/mL aprotinin, 5 μg/mL pepstatin A, and 5 μg/mL leupeptin. Proteins were subjected to SDS/polyacrylamide gel electrophoresis and electrotransferred to nitrocellulose membranes. Membranes were blocked with 5% milk in Tris-buffered saline containing 0.1% Tween-20 (TBST) pH 7.4 for 2 hours, incubated with primary antibody for 1 hour at 4° C., and washed three times with TBST. Primary antibodies were IkB-α (C-21) (Santa Cruz) and ERK1/2 as described.^21 Membranes were then incubated with secondary antibodies conjugated to DyLight 680 and 800 fluorescent dyes (Cell Signaling) to detect proteins using an ODYSSEY Infrared Imaging System (LI-COR).

[7] = test system: human islets; assay: Viability determination by Hoechst 342/PI, human islets; type: cell-based; conditions: for viability of human islets exposed to cytokines: 24 hours (cytokines 85.8±3.9%, control 93.5±3.2%)
Protocol: (§4) FIGS. 5A-5D show the optimal Withaferin A dosing is found without toxicity to islets: Human (5A and 5B) and mouse (5C and 5D) islets were cultured with Withaferin A. Samples were taken at 24 and 48 hours and stained with Hoechst 342 (all nuclei) and propidium iodide (necrotic nuclei). The percent viability was determined as the PI^+ area subtracted from the total area (Hoe342 stained). The optimal Withaferin A dose was determined to be 1.0 μg/mL Withaferin A for human islets (5A) and 0.5 μg/mL for mouse islets (5C). Asterisks above bars indicate statistically significant differences in mean values (*p<0.05 for 48 h and **p<0.001 for 24 and 48 hours) between controls and islets exposed to Withaferin A based on two-tailed Student's t test; N=10;
(§5) Viability Determination by Hoechst 342/PI: For immediate in vitro determination of necrosis, islets were incubated with Hoechst 342 (10 μg/mL) and propidium iodide (20 μg/mL) for 10 minutes at 37° C. before imaging via fluorescent microscopy. Fluorescent microsgraphs were merged in Image J (NIH Bethesda, Md.) and the propidium iodide positive area was divided by the Hoechst 342 positive area to provide a calculation of islet viability.

[8] = test system: MCP-1 and IP-10 in human islets; assay: Fluorescent immunohistochemistry, mean fluorescent intensity of MCP-1 and IP-10; type: cell-based; conditions: cytokine cocktail + 0.5 μg/mL Withaferin A, 24 hours
Protocol: Islet sections were captured under similar conditions and mean fluorescent intensity values were measured. […] Significant differences between mean values groups as determined by Turkey-Kramer post-hoc tests are indicated by an asterisk (*p<0.05) above bars;
Immunohistochemistry: Engrafted livers and cytokine treated islets were preserved in 10% formalin, embedded in paraffin and sectioned at 5 μm. Tissue sections were deparaffinized in xylene (twice for 5 minutes) and series of ethanol gradients (100%, 95%, 90%, 80%, 70%, and 50% ethanol diluted with water for 2 minutes each). Next, sections were heated at 98° C. in 1× Antigen Retrieval Reagent-Universal (R&D Systems) for 20 minutes. Then tissue samples were blocked for non-specific bonding by AquaBlock (EastCoast Bio) for 1 hour at room temperature. Next the primary antibody, diluted in a background reducing antibody diluent, was applied overnight at 4° C. Next, the appropriate fluorescently conjugated secondary antibody (diluted 1000×) was applied for 1 hour at room temperature protected from light. […] Micrographs were imported to Image J, converted to 8-bit grayscale photos, then the mean fluorescence intensity was measured by limiting the region of interest to a single islet via the thresholding function of the program. Mean fluorescent intensity is calculated at the integrated density divided by the area in the region of interest.

[9] = test system: NF-κB p65 in human β cells; assay: p65 translocation assay; type: cell-based; conditions: 24 hours (control 21.6±5.3%, cytokines 41.3±13.5%)
Protocol: Graphical representations (7B) are expressed as means±STD. Asterisks above bars indicate significant differences in mean values (*p<0.05) as determined by Turkey-Kramer post-hoc tests;
p65 Translocation Assay: NF-κB, p65, translocation was determined by overlap of Alexa-488 labeled NF-κB and DAPI stained nuclei, pseudocolored red by Image J for visualization. […] Nuclei positive for activated NF-κB translocation was counted in insulin positive cells and divided by the total number of beta-cells.
To determine whether NF-κB has been activated and moved to the nucleus, immunohistochemistry was performed to locate the p65 portion of NF-κB as described elsewhere.^12 All nuclei in insulin positive human β cells were counted and when NF-κB was stained in the nucleus it was classified NF-κB^+ and nuclei without NF-κB were classified NF-κB^− (FIG. 7A). Percent NF-κB activation was measured at 24 hours after culture with the cytokine cocktail and Withaferin A (FIG. 7B).

[10] = test system: G-CSF, IL-2, IL-6, IL-8, IP-10, MCP-1, IL-1α, TNF-α, MIP-1α, MIP-1β secreted by human islets; assay: Secreted inflammatory cytokines and chemokines (Luminex); type: cell-based; conditions: 96 hours
Protocol: Supernatant was collected and analyzed in duplicate with Millipore's human cytokine detection kit in the Luminex 200®. Results were standardized to the number of islets. Graphical representations are expressed as means±STD. Significant differences between mean values groups as determined by Turkey-Kramer post-hoc tests are indicated by an asterisk (*p<0.05) above bars;
Measurement of Secreted Inflammatory Cytokines and Chemokines: Fifty human islets were cultured in human islet culture media for 96 hours with the cytokine and Withaferin A treatment. Secretion of proinflammatory cytokines was determined by measuring cell culture supernatant in a Luminex 200 with a human inflammatory cytokine MagPlex kit (Millipore, Billerica, Mass.). The bead assay was performed according to the manufacturer's instructions with samples in duplicate.
In this study cell culture supernatants from human islets exposed to cytokines and Withaferin A was evaluated by a multiplex bead assay using Luminex® technology. The cell culture supernatant from which the samples were taken for Luminex analysis contained fifty, pure, hand-picked human islets, which had been cultured at 22° C. for over a week to decrease resident macrophage numbers that might interfere (N=10).

[11] = test system: islets; assay: FDA/PI staining islet viability, dose effect study; conditions: 48 hours culture
Protocol: Viability was assessed using fluorescein diacetate (FDA) and propidium iodide (PI). Islets used for the studies were 80 to 90% viable, with a purity of 60 to 85%. Human islets used were handpicked to greater than 95% purity. Islets were cultured with CMRL-based human islet culture media containing 0.1% BSA with Kanamycin at 37° C.
The viability and apoptosis test of islet with four different concentrations of Withaferin A (0.5 μg/mL, 1 μg/mL, 2 μg/mL and 4 μg/mL) was examined. FDA/PI staining was used to determine the islet viability.

[12] = test system: inflammatory cytokines and chemokines (iNOS, IL-1β, RANTES, MIG, IP-10) in human islets; conditions: human islets exposed to inflammatory cytokines, qPCR; cited from earlier work
[13] = test system: IP-10; assay: Flow cytometry, intracellular IP-10 in islets; type: cell-based, human; conditions: islets treated with cytokine mix + Withaferin A (untreated 4214.15, cytokine mix 18024.08)
From the text: as §1

[14] = test system: mouse islets; assay: Viability determination by Hoechst 342/PI, mouse islets; type: cell-based; conditions: for viability of mouse islets exposed to cytokines: 24 hours (cytokines 78.1±11.6%, control 93.3±2.9%)
Protocol: as §4
Mouse Isolation: Islets were isolated from male inbred B6 […] mice (C57BL/6N Inbred Mice, Harlan Labs). Collagenase type V (Sigma, C9263) (2 mg/mL) was injected through the common bile duct into the pancreas. Mouse pancreata were digested by incubation at 37° C. for 28 minutes. After washing, the islets were purified with a discontinuous Ficoll based gradient (1.085 g/mL, 1.077 g/mL, and Cap of DMEM) and centrifugation at 1000 rpm for 10 minutes. Purified islets were further purified in a 65 mm dish in DMEM by removing acinar cells to a purity of greater than 95%. Islets were cultured in DMEM supplemented with Kanamycin and 0.1% BSA, mouse islet culture media.
as §5

SMILES: CC1=C(CO)C(=O)O[C@@H]([C@@H](C)[C@H]2CC[C@H]3[C@@H]4C[C@H]5O[C@]56[C@@H](O)C=CC(=O)[C@]6(C)[C@H]4CC[C@]23C)C1 [Withaferin A]
- intensity of MCP-1 staining and IP-10 staining [1]: decreased the intensity
- stimulation index, mouse islets ([2]; 0.5 μg/mL, 24 hours, no cytokines (control 11.13±9.28)): 7.05±2.20
- stimulation index, mouse islets exposed to cytokines ([2]; cytokines with or without Withaferin A, twenty four hours): did not show any significant differences
- FITC positive population (apoptosis cells) ([3]; 2 μg/mL): small increase
- FITC positive population (apoptosis cells) ([3]; 4 μg/mL): dramatic increase
- percentage of FITC positive population (apoptosis cells) ([3]; low Withaferin A dose samples (0.5 and 1 μg/mL)): close to zero
- stimulation index, human islets ([4]; 0.5 μg/mL): 3.52±1.97
- Stimulation Index vs control group ([4]; 1 μg/mL Withaferin A, no cytokines (FIG. 4D)): no significant difference
- stimulation index, human islets ([4]; 1.0 μg/mL): 4.21±0.41
- stimulation index, human islets exposed to cytokines ([4]; cytokines + 1.0 μg/mL, twenty four hours (cytokines 1.59±0.34, control 3.10±1.53)): 2.20±0.61
- IP10, RANTES and MCP-1 expression upregulated by cytokine treatment [5]: could be inhibited
- IκB protein relative to ERK1/2 after cytokine cocktail [6]: prevented the reduction of IκB
- viability of human islets ([7]; 0.5 μg/mL, 48 hours, no cytokines (control 91.8±7.4%)): 89.0±4.6%
- viability of human islets ([7]; 1.0 μg/mL, 48 hours, no cytokines (control 91.8±7.4%)): 91.9±3.5%
- viability of human islets ([7]; 2.0 μg/mL, 24 hours, no cytokines (control 94.9±4.5%)): 70.5±8.8%
- viability of human islets exposed to cytokines ([7]; cytokine cocktail + 0.5 μg/mL): 92.6±5.1%
- viability of human islets exposed to cytokines ([7]; cytokine cocktail + 1.0 μg/mL): 94.6±2.9%
- optimal Withaferin A dose without toxicity to islets ([7]; human islets, 24 and 48 hours): 1.0 µg/mL
- IP-10 and MCP-1 levels within beta cells (mean fluorescent intensity) [8]: near control levels
- percent NF-κB+ insulin positive cells ([9]; cytokine cocktail + 0.5 μg/mL): 19.5±8.1%
- percent NF-κB+ cells ([9]; cytokine cocktail + 1.0 μg/mL): 10.0±4.1%
- secreted inflammatory molecules ([10]; 1.0 μg/mL, cytokines, p<0.05): significant decrease
- secreted levels of inflammatory cytokines and chemokines ([10]; human islets, cytokines + Withaferin A): decreased secreted levels of each molecule
- islet viability (FDA/PI) ([11]; 0.5 μg/mL): not decreased
- islet viability (FDA/PI) ([11]; 1 μg/mL): not decreased
- islet viability (FDA/PI) ([11]; 2 μg/mL): slight decrease
- islet viability (FDA/PI) ([11]; 4 μg/mL): significant loss
- decrease of mRNA levels of several chemokines [12]: ten-fold or more
- IP-10 mean channel fluorescence [13]: 7318.94 (+/−78.21)
- viability of mouse islets ([14]; 0.25 μg/mL, 48 hours, no cytokines (control 93.8±8.0%)): 90.1±6.6%
- viability of mouse islets ([14]; 0.5 μg/mL, 48 hours, no cytokines (control 93.8±8.0%)): 94.6±4.4%
- viability of mouse islets ([14]; 1.0 μg/mL, no cytokines, time not printed (control 97.3±2.2%)): 87.8±11.1%
- viability of mouse islets exposed to cytokines ([14]; cytokine cocktail + 0.25 μg/mL): 89.7±5.9%
- viability of mouse islets exposed to cytokines ([14]; cytokine cocktail + 0.5 μg/mL): 89.9±3.6%
- optimal Withaferin A dose without toxicity to islets ([14]; mouse islets, 24 and 48 hours): 0.5 µg/mL
